Test system: 777334-354-R2-J4-PDC tumor spheroids with HUVEC/MSC, viability
Assay: Anticancer human tumor 777334-354-R2-J4-PDC patient-derived pancreatic adenocarcinoma cell line growth inhibition [GQUAD]
Conditions: for IC50: curve of first compound; for viability, T/C: stronger effect = lower value
From the text: DNA G-quadruplex Stabilizer Agents in Combinations in Complex Spheroids
A high-throughput screen of multi-cell type tumor spheroids was designed to identify active combinations of DNA G-quadruplex stabilizer agents and targeted small molecules. Complex spheroids include a stromal component modeled by human endothelial cells (HUVEC) and fibroblasts modeled by human mesenchymal stem cells (MSCs). The concentration ranges selected for each drug and investigational agent were based upon clinically achievable concentrations if the clinical Cmax of the agent was known.
Compounds. The drugs and investigational agents: pidnarulex (CX-5461; NSC782164), APTO-253 (NSC789042), BRACO-19 (NSC847499), peposertib (NSC802822), ceralasertib (NSC780249), elimusertib (NSC800525), camonsertib (NSC841442), AZD-1390 (NSC803789), olaparib (NSC753686), talazoparib (NSC767125), ART-558 (NSC835418), sotorasib (NSC818433), MRTX-1133 (NSC836407), SN-38 (NSC673596), topotecan (NSC609699), etoposide (NSC141540), doxorubicin (NSC123127), gemcitabine (NSC613327), 5-fluorouracil (NSC19893), paclitaxel (NSC125973), vemurafenib (NSC761431), panobinostat (NSC761190), R-306465 (JNJ-16241199; NSC773264), adavosertib (NSC754352), TP-3654 (NSC805149), carboplatin (NSC241240), KSQ-4279 (NSC840948), and staurosporine (NSC755774) were obtained from the National Cancer Institute (NCI) Developmental Therapeutics Program Chemical Repository (34). The FDA-approved anticancer drug set is available from the NCI Developmental Therapeutics Program. […] The stock solutions were prepared in dimethyl sulfoxide (DMSO, Sigma-Aldrich, St. Louis, MO, cat. D2650) at 800-fold the tested concentration and stored at -70 degrees C prior to their use. All drugs and investigational agents were tested over a range starting from a high concentration at or near the clinical Cmax and decreasing in half-log increments. If the clinical Cmax for an agent had not been determined, the highest concentration tested was 10 microM.
2.3 Cell Culture. All cells were maintained in an incubator at 37 degrees C and 5% CO2 with 95% humidity. The PDC lines were cultured according to standard operating procedures established by the NCI PDMR. All PDCs were thawed and cultured in Matrigel-coated flasks prepared with a working solution of 1X Ham's F-12 nutrient mix, without supplementation (Invitrogen, cat. 11765054), 100 U/mL penicillin-streptomycin (Invitrogen, cat. 15140122), and 2.5% Matrigel (Corning Inc., cat. 354248) for the first three passages. The 857933-349-R-J2-PDC line was cultured in 6C/Colon 1B media, which includes advanced DMEM/F-12 (Thermo Fisher Scientific, cat. 12634028), 10 mM HEPES (Thermo Fisher Scientific, cat. 15630080), 1X GlutaMAX supplement (Thermo Fisher Scientific, cat. 35050061), 0.1 mg/mL primocin (InvivoGen, cat. ant-pm-2), 10% defined fetal bovine serum, heat inactivated (HyClone Laboratories Inc., cat. SH30070.03HI), 50% L-WRN conditioned media (ATCC, cat. CRL-3276), 1.25 mM N-Acetyl-L-cysteine (Sigma-Aldrich, cat. A9165), 10 mM nicotinamide (Sigma-Aldrich, cat. N0636), 1X B-27 supplement (Thermo Fisher Scientific, cat. 17504044), 1X N-2 supplement (Thermo Fisher Scientific, cat. 17502048), 10 microM Y-27632 dihydrochloride (Tocris Bioscience, cat. 1254), and 50 ng/mL human EGF recombinant protein (Thermo Fisher Scientific, cat. PHG0311). The 485176-168-R4-J1-PDC line was cultured in Panc media, which includes all 6C/Colon 1B media components plus 100 ng/mL human FGF-10 (Thermo Fisher Scientific, cat. 100-26), 500 nM SB-431542 (Selleckchem, cat. S1067), and gastrin (Tocris, cat. 3006).
[…]

[1] = second compound 0.0316 µM, first compound 0.0316 µM
[2] = second compound 0.0316 µM, first compound 0.1 µM
[3] = second compound 0.0316 µM, first compound 0.316 µM
[4] = second compound 0.0316 µM, first compound 1 µM
[5] = second compound 0.0316 µM, first compound 3.16 µM
[6] = second compound 0.0316 µM, first compound 10 µM
[7] = second compound 0.1 µM, first compound 0.0316 µM
[8] = second compound 0.1 µM, first compound 0.1 µM
[9] = second compound 0.1 µM, first compound 0.316 µM
[10] = second compound 0.1 µM, first compound 1 µM
[11] = second compound 0.1 µM, first compound 3.16 µM
[12] = second compound 0.1 µM, first compound 10 µM
[13] = second compound 0.316 µM, first compound 0.0316 µM
[14] = second compound 0.316 µM, first compound 0.1 µM
[15] = second compound 0.316 µM, first compound 0.316 µM
[16] = second compound 0.316 µM, first compound 1 µM
[17] = second compound 0.316 µM, first compound 3.16 µM
[18] = second compound 0.316 µM, first compound 10 µM
[19] = second compound 1 µM, first compound 0.0316 µM
[20] = second compound 1 µM, first compound 0.1 µM
[21] = second compound 1 µM, first compound 0.316 µM
[22] = second compound 1 µM, first compound 1 µM
[23] = second compound 1 µM, first compound 3.16 µM
[24] = second compound 1 µM, first compound 10 µM
[25] = second compound 3.16 µM, first compound 0.0316 µM
[26] = second compound 3.16 µM, first compound 0.1 µM
[27] = second compound 3.16 µM, first compound 0.316 µM
[28] = second compound 3.16 µM, first compound 1 µM
[29] = second compound 3.16 µM, first compound 3.16 µM
[30] = second compound 3.16 µM, first compound 10 µM
[31] = second compound 10 µM, first compound 0.0316 µM
[32] = second compound 10 µM, first compound 0.1 µM
[33] = second compound 10 µM, first compound 0.316 µM
[34] = second compound 10 µM, first compound 1 µM
[35] = second compound 10 µM, first compound 3.16 µM
[36] = second compound 10 µM, first compound 10 µM
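Note: spheroids exposed to compounds for 7 days before readout.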

Compound: CC(C)n1c(=O)n(C)c2cnc3cc(F)c(-c4ccc(OCCCN5CCCCC5)nc4)cc3c21 + CN(C)c1ccc(Nc2c3ccc(NC(=O)CCN4CCCC4)cc3nc3cc(NC(=O)CCN4CCCC4)ccc23)cc1
- IC50 (second compound 0.0316 µM): > 10000 nM
- IC50 (second compound 0.1 µM): > 10000 nM
- IC50 (second compound 0.316 µM): > 10000 nM
- IC50 (second compound 1 µM): > 10000 nM
- IC50 (second compound 3.16 µM): > 10000 nM
- IC50 (second compound 10 µM): 1650 nM
- viability, T/C [1]: 103%
- viability, T/C [2]: 94.4%
- viability, T/C [3]: 99.3%
- viability, T/C [4]: 107%
- viability, T/C [5]: 115%
- viability, T/C [6]: 92.3%
- viability, T/C [7]: 94%
- viability, T/C [8]: 93%
- viability, T/C [9]: 115%
- viability, T/C [10]: 104%
- viability, T/C [11]: 113%
- viability, T/C [12]: 93.4%
- viability, T/C [13]: 98.2%
- viability, T/C [14]: 111%
- viability, T/C [15]: 100%
- viability, T/C [16]: 107%
- viability, T/C [17]: 105%
- viability, T/C [18]: 77.5%
- viability, T/C [19]: 81.7%
- viability, T/C [20]: 85.6%
- viability, T/C [21]: 101%
- viability, T/C [22]: 90%
- viability, T/C [23]: 103%
- viability, T/C [24]: 75.2%
- viability, T/C [25]: 84.9%
- viability, T/C [26]: 75.3%
- viability, T/C [27]: 85.6%
- viability, T/C [28]: 83.2%
- viability, T/C [29]: 91.8%
- viability, T/C [30]: 62.1%
- viability, T/C [31]: 81.5%
- viability, T/C [32]: 75%
- viability, T/C [33]: 61.4%
- viability, T/C [34]: 58.6%
- viability, T/C [35]: 42.2%
- viability, T/C [36]: 31.7%

Compound: CC1COCCN1c1cc(-c2ccnn2C)c2ccnc(-c3ccn[nH]3)c2n1 (centres undefined) + CN(C)c1ccc(Nc2c3ccc(NC(=O)CCN4CCCC4)cc3nc3cc(NC(=O)CCN4CCCC4)ccc23)cc1
- IC50 (second compound 0.0316 µM): 1270 nM
- IC50 (second compound 0.1 µM): 1060 nM
- IC50 (second compound 0.316 µM): 789 nM
- IC50 (second compound 1 µM): 654 nM
- IC50 (second compound 3.16 µM): 590 nM
- IC50 (second compound 10 µM): 555 nM
- viability, T/C [1]: 103%
- viability, T/C [2]: 84.2%
- viability, T/C [3]: 61.7%
- viability, T/C [4]: 53.9%
- viability, T/C [5]: 44.4%
- viability, T/C [6]: 29%
- viability, T/C [7]: 106%
- viability, T/C [8]: 77%
- viability, T/C [9]: 66%
- viability, T/C [10]: 53.5%
- viability, T/C [11]: 40.1%
- viability, T/C [12]: 30.6%
- viability, T/C [13]: 93.9%
- viability, T/C [14]: 78%
- viability, T/C [15]: 59.4%
- viability, T/C [16]: 46.6%
- viability, T/C [17]: 38.4%
- viability, T/C [18]: 27.5%
- viability, T/C [19]: 90.8%
- viability, T/C [20]: 77.1%
- viability, T/C [21]: 51.7%
- viability, T/C [22]: 48.2%
- viability, T/C [23]: 37.2%
- viability, T/C [24]: 27.2%
- viability, T/C [25]: 87.4%
- viability, T/C [26]: 65.2%
- viability, T/C [27]: 53.9%
- viability, T/C [28]: 46.9%
- viability, T/C [29]: 38.5%
- viability, T/C [30]: 22.4%
- viability, T/C [31]: 77.2%
- viability, T/C [32]: 66.6%
- viability, T/C [33]: 57.1%
- viability, T/C [34]: 42.1%
- viability, T/C [35]: 32.4%
- viability, T/C [36]: 17.7%
